{
  "source": "patent US20110054216A1",
  "about": "“NOVEL PROCESS FOR MAKING (2R)-(3-AMINO-2-FLUOROPROPYL)PHOSPHINIC ACID FORM A” (priority 2007, published 2011)",
  "assay": "isoelectric point of the zwitterion",
  "format": "physicochemical",
  "conditions": "pH at which it may be crystallised",
  "experimental": "(2R)-(3-amino-2-fluoropropyl)phosphinic acid is a zwitterion, that may be crystallised at the isoelectric point, in this case approximately at a pH of 5.3. As the reaction is performed during acidic conditions, the protonated species of (2R)-(3-amino-2-fluoropropyl)phosphinic acid is formed. After completed reaction, the pH is adjusted to 5-6 by addition of a base in order to isolate (2R)-(3-amino-2-fluoropropyl)phosphinic acid crude as the zwitterion. The solution of (2R)-(3-amino-2-fluoropropyl)phosphinic acid works as a buffer solution and the amount of base added to reach the set pH-interval (5-6) is can be varied in the range of from 1.8-2.8 equivalents.",
  "data": [
    {"smiles": "NC[C@@H](F)C[PH](=O)O", "note": "[(2R)-(3-amino-2-fluoropropyl)phosphinic acid]", "values": [
      {"measurement": "isoelectric point (pH)", "result": "~5.3"}
    ]}
  ]
}
